Legend:
Format in all cases: biochemical
human Src enzyme = biological target: T1, human Src enzyme (Homo sapiens, UniProt P12931); experiment: Src enzyme inhibitory activity (time-resolved fluorometry, biotinylated peptide phosphorylation); conditions: biotinylated peptide phosphorylation, read-out: SRC_IC50
T1 construct: purchased Carna Biosciences, Inc. 08-173
How it was run: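 Compounds were tested for blocking tyrosine phosphorylation of a biotinylated peptide substrate by recombinant human Src. Phosphorylated product was quantified by time-resolved fluorometry using europium cryptate and XL665 conjugates, and IC50 was calculated against the compound-free control.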

human Yes1 enzyme = biological target: T2, human Yes1 enzyme (Homo sapiens, UniProt P07947); experiment: Yes1 enzyme inhibitory activity (time-resolved fluorometry, biotinylated peptide phosphorylation); conditions: biotinylated peptide phosphorylation, read-out: YES_IC50
T2 construct: made in house
T2 sequence (P07947 whole entry): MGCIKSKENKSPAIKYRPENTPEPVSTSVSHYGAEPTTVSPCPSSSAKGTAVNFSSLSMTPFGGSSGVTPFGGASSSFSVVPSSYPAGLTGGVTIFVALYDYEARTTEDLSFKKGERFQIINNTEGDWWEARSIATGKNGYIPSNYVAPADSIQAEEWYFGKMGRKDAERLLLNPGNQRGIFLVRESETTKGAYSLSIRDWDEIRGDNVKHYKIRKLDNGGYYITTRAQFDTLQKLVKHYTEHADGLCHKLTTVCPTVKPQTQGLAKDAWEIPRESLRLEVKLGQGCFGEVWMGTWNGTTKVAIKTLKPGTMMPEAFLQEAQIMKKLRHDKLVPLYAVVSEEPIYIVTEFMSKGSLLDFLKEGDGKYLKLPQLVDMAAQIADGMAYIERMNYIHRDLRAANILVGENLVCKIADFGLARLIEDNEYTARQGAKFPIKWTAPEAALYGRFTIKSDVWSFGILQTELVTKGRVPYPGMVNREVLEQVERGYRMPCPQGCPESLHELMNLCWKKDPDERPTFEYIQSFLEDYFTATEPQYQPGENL
How it was run: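 Inhibition was expressed against a compound-free control to give IC50, using TR-FRET read-out (Eu-cryptate anti-pTyr antibody, streptavidin-XL665).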

human Lck enzyme = biological target: T3, human Lck enzyme (Homo sapiens, UniProt P06239); experiment: Lck enzyme inhibitory activity (time-resolved fluorometry, biotinylated peptide phosphorylation); conditions: biotinylated peptide phosphorylation, read-out: LCK_IC50
T3 construct: purchased Carna Biosciences, Inc. 08-170
T3 sequence (P06239 whole entry): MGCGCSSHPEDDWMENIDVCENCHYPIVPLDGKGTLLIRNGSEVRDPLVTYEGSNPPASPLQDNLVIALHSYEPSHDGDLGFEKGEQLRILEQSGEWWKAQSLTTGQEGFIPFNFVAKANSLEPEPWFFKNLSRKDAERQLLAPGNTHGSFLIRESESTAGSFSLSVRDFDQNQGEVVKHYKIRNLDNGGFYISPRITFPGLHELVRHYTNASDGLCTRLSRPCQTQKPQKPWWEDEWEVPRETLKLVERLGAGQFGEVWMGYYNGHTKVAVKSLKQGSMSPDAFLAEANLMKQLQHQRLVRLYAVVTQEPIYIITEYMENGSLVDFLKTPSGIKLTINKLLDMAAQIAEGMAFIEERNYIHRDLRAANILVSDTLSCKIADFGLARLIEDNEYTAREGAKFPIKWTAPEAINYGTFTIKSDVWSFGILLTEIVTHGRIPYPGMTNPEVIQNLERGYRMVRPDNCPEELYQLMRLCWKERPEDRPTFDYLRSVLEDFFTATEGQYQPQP
How it was run: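 Readout pairs a europium cryptate-labelled anti-phosphotyrosine antibody with XL665-streptavidin, measured by time-resolved fluorescence. IC50 derived from percent inhibition against untreated controls.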

T1 sequence (P12931 whole entry): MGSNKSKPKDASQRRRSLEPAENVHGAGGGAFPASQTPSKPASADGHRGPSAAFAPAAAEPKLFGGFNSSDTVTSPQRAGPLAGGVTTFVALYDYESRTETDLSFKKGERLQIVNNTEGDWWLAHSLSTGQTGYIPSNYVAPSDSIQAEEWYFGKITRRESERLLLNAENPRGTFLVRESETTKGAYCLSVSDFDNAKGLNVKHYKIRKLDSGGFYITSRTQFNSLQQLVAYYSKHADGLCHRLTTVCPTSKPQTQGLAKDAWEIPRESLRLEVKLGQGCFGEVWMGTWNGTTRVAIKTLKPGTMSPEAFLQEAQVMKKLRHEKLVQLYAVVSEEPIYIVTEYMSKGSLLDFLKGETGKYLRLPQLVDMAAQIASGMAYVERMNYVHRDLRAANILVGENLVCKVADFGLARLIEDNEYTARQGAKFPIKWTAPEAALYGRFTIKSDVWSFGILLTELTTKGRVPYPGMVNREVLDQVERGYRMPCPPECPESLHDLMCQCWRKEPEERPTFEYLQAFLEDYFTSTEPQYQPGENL

Row | SMILES | IC50 (human Src enzyme) | IC50 (human Yes1 enzyme) | IC50 (human Lck enzyme)
1 | Cc1cc(Oc2ccccc2)cc(F)c1-n1ncc(C(=O)c2cc3cc(Cl)c(NS(C)(=O)=O)cc3[nH]2)c1N [Example 4-2-084, N-[2-[5-amino-1-(2-fluoro-6-methyl-4-phenoxyphenyl)pyrazole-4-carbonyl]-5-chloro-1H-indol-6-yl]methanesulfonamide] | 160 nM | 6.3 nM | 73 nM
2 | Cc1cc(Oc2ccccc2F)ncc1-n1ncc(C(=O)c2cc3cc(Cl)c(NS(C)(=O)=O)cc3[nH]2)c1N [Example 4-2-085, N-[2-[5-amino-1-[6-(2-fluorophenoxy)-4-methylpyridin-3-yl]pyrazole-4-carbonyl]-5-chloro-1H-indol-6-yl]methanesulfonamide] | 51 nM | 0.81 nM | 7.6 nM
3 | Cc1cc(Oc2c(F)cccc2F)ncc1-n1ncc(C(=O)c2cc3cc(Cl)c(NS(C)(=O)=O)cc3[nH]2)c1N [Example 4-2-086, N-[2-[5-amino-1-[6-(2,6-difluorophenoxy)-4-methylpyridin-3-yl]pyrazole-4-carbonyl]-5-chloro-1H-indol-6-yl]methanesulfonamide] | 99 nM | 1.6 nM | 8.3 nM
4 | Cc1cc(Oc2cccc(F)c2F)ncc1-n1ncc(C(=O)c2cc3cc(Cl)c(NS(C)(=O)=O)cc3[nH]2)c1N [Example 4-2-087, N-[2-[5-amino-1-[6-(2,3-difluorophenoxy)-4-methylpyridin-3-yl]pyrazole-4-carbonyl]-5-chloro-1H-indol-6-yl]methanesulfonamide] | 220 nM | 2.7 nM | 55 nM
5 | Cc1cc(Oc2ccccc2Cl)ncc1-n1ncc(C(=O)c2cc3cc(Cl)c(NS(C)(=O)=O)cc3[nH]2)c1N [Example 4-2-088, N-[2-[5-amino-1-[6-(2-chlorophenoxy)-4-methylpyridin-3-yl]pyrazole-4-carbonyl]-5-chloro-1H-indol-6-yl]methanesulfonamide] | 170 nM | 2.6 nM | 48 nM
6 | Cc1cc(Oc2c(F)cccc2Cl)ncc1-n1ncc(C(=O)c2cc3cc(Cl)c(NS(C)(=O)=O)cc3[nH]2)c1N [Example 4-2-089, N-[2-[5-amino-1-[6-(2-chloro-6-fluorophenoxy)-4-methylpyridin-3-yl]pyrazole-4-carbonyl]-5-chloro-1H-indol-6-yl]methanesulfonamide] | 180 nM | 2.7 nM | 13 nM
7 | Cc1ccccc1Oc1cc(C)c(-n2ncc(C(=O)c3cc4cc(Cl)c(NS(C)(=O)=O)cc4[nH]3)c2N)cn1 [Example 4-2-090, N-[2-[5-amino-1-[4-methyl-6-(2-methylphenoxy)pyridin-3-yl]pyrazole-4-carbonyl]-5-chloro-1H-indol-6-yl]methanesulfonamide] | 110 nM | 1.5 nM | 17 nM
8 | Cc1cc(Oc2cccc(Cl)c2)ncc1-n1ncc(C(=O)c2cc3cc(Cl)c(NS(C)(=O)=O)cc3[nH]2)c1N [Example 4-2-091, N-[2-[5-amino-1-[6-(3-chlorophenoxy)-4-methylpyridin-3-yl]pyrazole-4-carbonyl]-5-chloro-1H-indol-6-yl]methanesulfonamide] | 350 nM | 9.7 nM | 140 nM
9 | Cc1cc(Oc2ccc(F)cc2)ncc1-n1ncc(C(=O)c2cc3cc(Cl)c(NS(C)(=O)=O)cc3[nH]2)c1N [Example 4-2-092, N-[2-[5-amino-1-[6-(4-fluorophenoxy)-4-methylpyridin-3-yl]pyrazole-4-carbonyl]-5-chloro-1H-indol-6-yl]methanesulfonamide] | 270 nM | 19 nM | 78 nM
10 | Cc1cc(Oc2ccccc2F)cc(F)c1-n1ncc(C(=O)c2cc3cc(NS(C)(=O)=O)c(Cl)cc3[nH]2)c1N [Example 4-2-093, N-[2-[5-amino-1-[2-fluoro-4-(2-fluorophenoxy)-6-methylphenyl]pyrazole-4-carbonyl]-6-chloro-1H-indol-5-yl]methanesulfonamide] | 19 nM | 0.89 nM | 5.7 nM
11 | Cc1cc(Oc2cccc(F)c2F)cc(F)c1-n1ncc(C(=O)c2cc3cc(NS(C)(=O)=O)c(Cl)cc3[nH]2)c1N [Example 4-2-094, N-[2-[5-amino-1-[4-(2,3-difluorophenoxy)-2-fluoro-6-methylphenyl]pyrazole-4-carbonyl]-6-chloro-1H-indol-5-yl]methanesulfonamide] | 33 nM | 2 nM | 8.2 nM
12 | Cc1cc(Oc2ccccc2)cc(F)c1-n1ncc(C(=O)c2cc3cc(NS(C)(=O)=O)c(Cl)cc3[nH]2)c1N [Example 4-2-095, N-[2-[5-amino-1-(2-fluoro-6-methyl-4-phenoxyphenyl)pyrazole-4-carbonyl]-6-chloro-1H-indol-5-yl]methanesulfonamide] | 14 nM | 0.85 nM | 5.3 nM
13 | Cc1cc(Oc2ccccc2F)ncc1-n1ncc(C(=O)c2cc3cc(NS(C)(=O)=O)c(Cl)cc3[nH]2)c1N [Example 4-2-096, N-[2-[5-amino-1-[6-(2-fluorophenoxy)-4-methylpyridin-3-yl]pyrazole-4-carbonyl]-6-chloro-1H-indol-5-yl]methanesulfonamide] | 9.5 nM | 0.38 nM | 2.6 nM
14 | Cc1cc(Oc2ccccc2F)ccc1-n1ncc(C(=O)c2cc3cc(NS(C)(=O)=O)c(F)cc3[nH]2)c1N [Example 4-2-097, N-[2-[5-amino-1-[4-(2-fluorophenoxy)-2-methylphenyl]pyrazole-4-carbonyl]-6-fluoro-1H-indol-5-yl]methanesulfonamide] | 8.1 nM | 0.28 nM | 1.8 nM
15 | Cc1cc(Oc2cccc(F)c2F)ccc1-n1ncc(C(=O)c2cc3cc(NS(C)(=O)=O)c(F)cc3[nH]2)c1N [Example 4-2-098, N-[2-[5-amino-1-[4-(2,3-difluorophenoxy)-2-methylphenyl]pyrazole-4-carbonyl]-6-fluoro-1H-indol-5-yl]methanesulfonamide] | 15 nM | 0.39 nM | 2.5 nM
16 | Cc1cc(Oc2ccccc2F)cc(F)c1-n1ncc(C(=O)c2cc3cc(NS(C)(=O)=O)c(F)cc3[nH]2)c1N [Example 4-2-099, N-[2-[5-amino-1-[2-fluoro-4-(2-fluorophenoxy)-6-methylphenyl]pyrazole-4-carbonyl]-6-fluoro-1H-indol-5-yl]methanesulfonamide] | 15 nM | 0.61 nM | 2.8 nM
17 | Cc1cc(Oc2cccc(F)c2F)cc(F)c1-n1ncc(C(=O)c2cc3cc(NS(C)(=O)=O)c(F)cc3[nH]2)c1N [Example 4-2-100, N-[2-[5-amino-1-[4-(2,3-difluorophenoxy)-2-fluoro-6-methylphenyl]pyrazole-4-carbonyl]-6-fluoro-1H-indol-5-yl]methanesulfonamide] | 27 nM | 0.73 nM | 2.1 nM
18 | Cc1cc(Oc2cc(F)ccc2F)cc(F)c1-n1ncc(C(=O)c2cc3cc(NS(C)(=O)=O)c(F)cc3[nH]2)c1N [Example 4-2-101, N-[2-[5-amino-1-[4-(2,5-difluorophenoxy)-2-fluoro-6-methylphenyl]pyrazole-4-carbonyl]-6-fluoro-1H-indol-5-yl]methanesulfonamide] | 50 nM | 0.74 nM | 2.9 nM
19 | Cc1cc(Oc2ccccc2Cl)cc(F)c1-n1ncc(C(=O)c2cc3cc(NS(C)(=O)=O)c(F)cc3[nH]2)c1N [Example 4-2-102, N-[2-[5-amino-1-[4-(2-chlorophenoxy)-2-fluoro-6-methylphenyl]pyrazole-4-carbonyl]-6-fluoro-1H-indol-5-yl]methanesulfonamide] | 48 nM | 0.89 nM | 3.9 nM
20 | Cc1cc(Oc2ccccc2)cc(F)c1-n1ncc(C(=O)c2cc3cc(NS(C)(=O)=O)c(F)cc3[nH]2)c1N [Example 4-2-103, N-[2-[5-amino-1-(2-fluoro-6-methyl-4-phenoxyphenyl)pyrazole-4-carbonyl]-6-fluoro-1H-indol-5-yl]methanesulfonamide] | 7 nM | 0.41 nM | 0.97 nM
21 | Cc1cc(Oc2ccccc2F)ncc1-n1ncc(C(=O)c2cc3cc(NS(C)(=O)=O)c(F)cc3[nH]2)c1N [Example 4-2-104, N-[2-[5-amino-1-[6-(2-fluorophenoxy)-4-methylpyridin-3-yl]pyrazole-4-carbonyl]-6-fluoro-1H-indol-5-yl]methanesulfonamide] | 22 nM | 0.56 nM | 1.9 nM
22 | Cc1cc2cc(C(=O)c3cnn(-c4ccc(Oc5ccccc5F)cc4C)c3N)[nH]c2cc1NS(=O)(=O)N1CCOCC1 [Example 4-2-105, N-[2-[5-amino-1-[4-(2-fluorophenoxy)-2-methylphenyl]pyrazole-4-carbonyl]-5-methyl-1H-indol-6-yl]morpholine-4-sulfonamide] | 100 nM | 0.36 nM | 24 nM
23 | Cc1cc2cc(C(=O)c3cnn(-c4ccc(Oc5cccc(F)c5F)cc4C)c3N)[nH]c2cc1NS(=O)(=O)N1CCOCC1 [Example 4-2-106, N-[2-[5-amino-1-[4-(2,3-difluorophenoxy)-2-methylphenyl]pyrazole-4-carbonyl]-5-methyl-1H-indol-6-yl]morpholine-4-sulfonamide] | 180 nM | 1.4 nM | 51 nM
24 | Cc1cc2cc(C(=O)c3cnn(-c4c(C)cc(Oc5ccccc5F)cc4F)c3N)[nH]c2cc1NS(=O)(=O)N1CCOCC1 [Example 4-2-107, N-[2-[5-amino-1-[2-fluoro-4-(2-fluorophenoxy)-6-methylphenyl]pyrazole-4-carbonyl]-5-methyl-1H-indol-6-yl]morpholine-4-sulfonamide] | 250 nM | 2.4 nM | 89 nM
